Measured values: US5985926A, “Method for inhibiting intracellular viral replication” (Cell Therapeutics, Inc., priority 1997, dated 1999)

Key:
[1] = tested on: CMV promoter in 293-EBNA cells; experiment: AP reporter gene expression from CMV promoter, 293-EBNA cells stably transfected with pCMV.AP; type: cell-based, human cytomegalovirus; human cells; details: Homo sapiens, 293-EBNA; FIG. 8; read-out: concentration inhibiting AP activity by 50% (CMV assay)
Procedure: An assay for measuring the anti-viral activity of the compounds involves testing the abilities of the compounds to inhibit gene expression directed by specific viral promoters in cell lines. Specifically, a plasmid construct, pCMV.AP, using the human cytomegalovirus (CMV) enhancer and promoter to direct the expression of the secreted human placental alkaline phosphatase reporter gene were transformed into a tumor cell line (e.g., 293-EBNA cells). The cultured cells were treated with various concentrations of the compounds. The expression of the alkaline phosphatase (AP) reporter gene in the individual cultures can then be measured by following the change in absorbance at A405 of the cell conditioned media in the presence of a suitable substrate (e.g., ortho-nitrophenol phosphate) (Berger et al., Gene 66:1,1988).
The construction of expression vectors for secreted placental alkaline phosphatase (sPAP) was performed by obtaining a mammalian episomal expression vector pBL3, derived from the plasmids pMEP4 and pCEP4 (Invitrogen Corp). Specifically, a 600 bp Spe I--Kpn I fragment spanning the CMV promoter from pCEP4 and a 9500 bp Xba I--Kpn I vector fragment from pMEP4 were isolated and ligated together to form pBL3. Full length sPAP cDNA was amplified by PCR using the plasmid pGEM4Z/SEAP (ATCC) as template with primers 5'-[…]-3' (SEQ ID NO. 1) and 5'-[…]-3' (SEQ ID NO. 2). The PCR product was then digested with Xba I and Sal I and inserted between the Nhe I site and the Xho I site within the multiple cloning region of pBL3. The resulting plasmid was designated as PCMV.AP.

[2] = Viability of 293-EBNA cells, Alamar Blue; type: cell-based, human; details: human, 293-ebna cells; read-out: LD50 (CMV assay, FIG. 9)
Procedure: (§1) Cell viability was measured by a colorimetric assay that uses Alamar Blue dye (Alamar, Inc.) to report cell proliferation, viability and cytotoxicity. This vital dye indicates cell activity by serving as substrate for mitochrondrial dehydrogenases for the formation of soluble dyes which can be quantitated by determining the difference in absorbance between A570 and A600 using a plate reader.
as §1, with “[…]” for “colorimetric”
This example illustrates that CT2576 suppressed both tat-dependent and TNF-α induced HIV-LTR transcription with an IC50 of approximately 10 μM. Study of the effects of CT2576 on cell toxicity was performed using the Alamar Blue™ dye (Alamar Biosciences) according to the manufacturer's instructions. CT2576 was not toxic to 293-EBNA cells at concentrations up to 35 μM. To show CT2576 can inhibit HIV expression, CT2576 was tested for the ability to block HIV p24 antigen expression in chronically or acutely infected cells. Specifically, CT2576 inhibited the TNF-α and IL-6 induced and the constitutive expression of HIV in the chronically infected U1 cells and in peripheral blood lymphocytes (PBL) freshly infected with a HIV strain from a clinical isolate with an IC50 of approximately 1 μM. Pharmacological inhibition of synthesis of selected PL may therefore be a novel therapeutic approach to suppression of HIV replication.

[3] = tested on: HIV-LTR promoter (tat transactivation) in 293-EBNA cells; experiment: AP reporter gene expression from HIV-LTR promoter with tat expression vector, 293-EBNA cells; type: cell-based, HIV; human cells
Description: The plasmid construct, pHIV.AP, using the human immunodeficiency virus (HIV) long terminal repeat (LTR) promoter (derived from pU3R-III CAT, Sodroski et al., Science 227:171, 1985) to direct the expression of the sPAP reporter gene, was made by replacing the CMV promoter region from pCMV.AP with the HIV-LTR promoter. PHIV.AP was co-transfected with pSV2tat72, an expression vector for the 72 amino acids tat protein from HIV (Frankel and Pabo, Cell 55:1189-1193, 1988), into 293-EBNA cells (Invitrogen). The cultured cells were treated with various concentrations of the compounds. The expression of the alkaline phosphatase (AP) reporter gene in the individual cultures was measured by following change in absorbance at 405 nm of the cell conditioned media in the presence of a suitable substrate (e.g., ortho-nitrophenol phosphate) (Berger et al., Gene 66:1-10, 1988).
We set up a cell-based system with a cell line cotransfected with an expression plasmid using HIV-1-LTR promoter to direct synthesis of AP reporter gene and an expression plasmid to direct synthesis of the first 72 amino acids of tat protein. Plasmid pREP7 (Invitrogen) was converted to pREP7b by deleting 2,040 bp EBNA-1 coding region and by replacing the pBR322 origin of replication (ori) with the pBluescript KS (Stratagene) ori region. The cDNA for secreted placental alkaline phosphatase (AP) was generated by PCR with the primers (5'-[…]-3')(SEQ ID NO. 3) and (5'-[…]-3') (SEQ ID NO. 4)using the plasmid pGEM-4Z/PLAP489 (American Type Culture Collection) as the template. The 2,000 bp Xba I-Sal I fragment obtained was ligated into a Nhe I/Xho I vector derived from pREP7b to generate the plasmid pREP7b.AP. The 44 bp Xba I-Bgl II fragment from plasmid pMEP4 (Invitrogen)and the 36 bp BamH I-Kpn I fragment from pREP7 were ligated into the Xba I-Kpn I vector fragment from pREP7b.AP to generate the plasmid pMCS.AP. The 720 bp Xho I-Hind III fragment encoding the HIV-LTR promoter from the plasmid pU3R-III-CAT (Sodroski et al., Science 227:171-173, 1985) was ligated into the Xho I-Hind III vector fragment of PMCS.AP to generate the plasmid pHIV.AP. The CMV promoter was derived from the 600 bp Spe I-Asp718 I fragment from pCEP4 (Invitrogen). The 360 bp SV40 early promoter fragments were produced from pSV2tat72 (Frankel et al., Cell 55:1189-1193,1988) by PCR using the primers (5'-[…]-3') (SEQ ID NO. 5) and (5'-[…]-3') (SEQ ID NO. 6). The 480 bp phosphoglycerate kinase (PGK) promoter fragment was amplified from human placental genomic DNA (Promega, Madison, Wis.) based on published sequence (Pfeifer et al., Science 246:810-813, 1990) using the primers (5'-[…]-3') (SEQ ID NO. 7) and (5'-[…]-3') (SEQ ID NO. 8). The above fragments were ligated into the Xba I-Asp718 I vector fragment of pHIV.AP to generate pHIV2.AP, pHIV3.AP, pCMV.AP, pSVE.AP and PPGK.AP respectively. The tat-expression plasmid directed by HIV-LTR promoter, pHIV.tat, was generated by inserting the 400 bp EcoRV-HindIII fragment from pHIV.AP into the PvuII-HindIII vector fragment from pSV2tat72 (Frankel et al., Cell 55:1189-1193, 1988).
Transient transfections with various expression plasmids were performed on a human kidney embryonic cell line 293-EBNA (Invitrogen) using the cationic lipid DOTAP (Boehringer Mannheim). The cell culture media were changed 24 hr after transfection into a serum-free medium AIM V (Life Technologies) before addition of compounds or TNF-α (PeproTech) at the appropriate concentrations. AP activity measured by a colorimetric assay (Berger et al., Gene 66:1-10, 1988) was performed 19-24 hr later.

[4] = Viability of 293-EBNA cells (dye not stated); details: human
[5] = tested on: NFκB; experiment: NFκB activation in 293tat cells, electrophoretic mobility shift assay; type: cell-based, human; details: CT2576 12 μM, TNF-α 40 ng/ml or IL-1β 1 ng/ml
Procedure: (§2) Nuclear extracts (A) from 293tat cells were tested by EMSA for activation of NFκB. A radiolabeled 40-mer covering the NFκB sequences in the HIV promoter was used as a probe. Cells were incubated with CT2576 at 12 μM, human TNF-α at 40 ng/ml or IL-1β at 1 ng/ml, or pre-incubated for 30 min. with CT2576 and then stimulated with TNF-α or IL-1β for 18 hr prior to making extracts. RNA was extracted from 293tat cells (B) after treatment with CT2576 without or with TNF-α or IL-1β for 18 hr. Northern blots analysis were performed using probes derived from AP cDNA and G3PDH cDNA as a control for normalization of mRNA level. AP activity was determined in cell supernatants from the various samples.
(§3) NFκB binding activity in nuclear extracts (Dignam et al., Nucleic Acids Res. 11:1475-1489, 1983) of cells was measured by electrophoretic mobility-shift assay (EMSA) (Carthew et al., Cell 43:439-448, 1985) using 5'-labeled double-stranded synthetic DNA with two NF-κB motifs. Northern blot analysis was performed with total RNA run on 1% agarose/formaldehyde gel and probed with ^32 P-labeled cDNA of AP and glyceraldehyde-3-phosphate dehydrogenase (G3PDH).

[6] = tested on: AP mRNA in 293tat cells; experiment: AP mRNA level in 293tat cells, Northern blot; type: cell-based, human; details: with TNF-α or IL-1β
Procedure: as §2, §3

[7] = tested on: phosphatidic acid (PA) subspecies in 293tat cells; experiment: PA composition of 293tat cells by HPLC; type: cell-based, human
Procedure: One must first quantitatively and qualitatively separate PAs from the other lipids found in serum by a chemical extraction of lipids and high performance liquid chromatography (HPLC) to separate and detect PAs. […] Briefly, the method of Bligh et al. involves an organic extraction of lipids from biological tissue homogenates or fluids. One volume of sample and three volumes of methanol:chloroform (2:1) are vigorously shaken for 2 min. One volume of chloroform is added and then shaken vigorously for 30 sec. One volume of water is added and then shaken vigorously for 30 sec. The mixture is filtered and the upper aqueous layer is discarded. The lower organic layer contains a mixture of lipid classes. The method of Folch et al. involves the extraction of lipids from biological tissue homogenates or body fluids. One volume of sample plus 20 volumes of chloroform:methanol (2:1) are vigorously shaken for 2 min. The mixture is filtered and an amount of 0.1 N KCl equal to 20% of the extraction mixture volume is added and the mixture is shaken vigorously for 2 min. The aqueous and organic phases are allowed to separate. The upper aqueous layer is discarded. The lower organic layer contains a mixture of lipid classes. […] This method involves separation of lipids into their major classes by normal phase (silica) high performance liquid chromatography (HPLC). A 5 micron, 25 cm×0.45 cm silica HPLC column is connected to a binary solvent delivery system followed with a UV detector. The lipid sample is injected on the column and a solvent gradient is run at 1.0 ml/min. The solvent gradient is hexane:isopropanol:water in the proportions 3:4:0.75 run isocratically for 3 min, then ramped to hexane:isopropanol:water in the proportions 3:4:1.4 in 15 min, then run isocratically at the same proportions for 15 min. Detection is at 206 nm.
One of the steps after cell activation involves the hydrolysis of phosphatidylcholine (PC), the major phospholipid of cellular membranes, by phospholipases C and D, leading to the generation of second messengers, such as PA and DG, in the signal transduction cascade.

[8] = tested on: HIV-LTR promoter in 293-EBNA cells; experiment: AP reporter expression in 293-EBNA cells with HIV-LTR plasmids, TNF-α stimulation; type: cell-based, HIV; human cells
Procedure: FIG. 14 illustrates the effect of tat and TNF-α on HIV-LTR-mediated reporter gene expression in 293-EBNA cells. The y-axis refers to the relative amount of AP reporter gene activity present in the culture media of 293-EBNA cells after transient transfection with various plasmids. Freshly trypsinized 293-EBNA cells at 10^4 cells per sample were transfected with 2 μg of either pHIV.AP, pHIV2.AP, or pHIV3.AP alone or in combination with pSV2tat72 or pHIV.tat using the cationic lipid DOTAP. The plasmids pHIV.AP, pHIV2.AP, and pHIV3.AP contain nucleotides -453 to +80, -107 to +80, and -80 to +80 of the HIV-LTR sequence respectively. Transfected cells were plated in 96-well microtiter plates at 2,000 cells per well. The cell culture media were changed 24 hr later into new medium. The samples were incubated for another 24 hr with or without TNF-α (20 ng/ml). 2 μl of medium from each well was used for AP assay. The height of each column represents the mean of triplicate samples with error bar indicating the standard deviation of the mean.
AP reporter gene activity expressed in 293-EBNA cells transfected with either pHIV.AP alone or in combination with pSV2tat72, pHIV.tat or with TNF-α stimulation is shown in FIG. 14. The plasmid pHIV.AP contains the full-length HIV-LTR sequence that extends from nucleotides -453 to +80. The expression level of AP was low using the pHIV.AP construct alone, indicating the presence of negative regulatory elements in the HIV-LTR sequence. Induction with TNF-α increased the AP expression level by about 4 fold. The AP expression level increased by 15 to 70 fold in the presence of the tat expression plasmids pHIV.tat or pSV2tat72. […] TNF-α and tat in combination enhanced the AP expression level by two fold when using the pSV2tat72 construct, and by ten fold when using the pHIV.tat construct, but the final levels of AP activity were similar.

Which results are given for `CCCCCCCCNCC(O)CCCCCCCCCN1C(=O)Cc2ccccc2C1=O` (stereo not drawn) [CT1115, N-(11-octylamino-10-hydroxyundecyl)homophthalimide]?
IC50 [1]: 2 to 6 µM; CC50 [2]: ~5 µM

Which results are given for `CCCCCCCCCCCCNCC(O)CCCCCCCn1c(=O)c2c(ncn2C)n(C)c1=O` (stereo not drawn) [CT2573, 1-(9-dodecylamino-8-hydroxynonyl)-3,7-dimethylxanthine]?
inhibition of AP expression (HIV-LTR promoter) ([3]; 293-EBNA cells, HIV promoter, in words): did not affect AP activity; IC50 ([3]; Homo sapiens, 293-EBNA, read-out: concentration inhibiting AP expression by 50%): 1 to 4 µM; CC50 [4]: ~5 µM

For TNF-α, which “activation of NFκB” value [5] is on record?
Its value is “NFκB was activated”.

And the “AP transcript / mRNA steady-state level” value [6]?
The value was “induction of AP transcripts”.

And the “increase of C14-16 saturated acyl chain PA peak” value ([7]; TNF-α 45 sec)?
Its value is “up to 80%”.

And the “C14-16 saturated PA peak, share of total far UV absorbing lipids after TNF-α” value ([7]; TNF-α 45 sec (from 5.4%))?
The value was 9%.

And the “fold enhancement of AP expression by TNF-α with pHIV.tat” value ([8]; TNF-α and tat in combination, pHIV.tat construct)?
Its value is “ten”.

And the “fold enhancement of AP expression by TNF-α with pSV2tat72” value ([8]; TNF-α and tat in combination, pSV2tat72 construct)?
The value was “two”.

And the “fold increase of AP expression level by TNF-α” value ([8]; pHIV.AP alone)?
The value was “about 4 fold”.
